Measurements reported in US5986108A, “4-substitued-3-[1 or 2 amino acid residue]-azetidin-2-one derivatives useful as cysteine proteinase inhibitor” (Synphar Laboratories, Inc., priority 1997, dated 1999).
Like-named read-outs stand apart in the source and are kept apart here.

How the values were obtained:
Type in all cases: biochemical
papain = target: T1, papain (Carica papaya, UniProt P00784); assay: Assay of inhibition of papain (N-CBZ-Pro-Phe-Arg-pNA substrate)
T1 sequence (P00784 134-345): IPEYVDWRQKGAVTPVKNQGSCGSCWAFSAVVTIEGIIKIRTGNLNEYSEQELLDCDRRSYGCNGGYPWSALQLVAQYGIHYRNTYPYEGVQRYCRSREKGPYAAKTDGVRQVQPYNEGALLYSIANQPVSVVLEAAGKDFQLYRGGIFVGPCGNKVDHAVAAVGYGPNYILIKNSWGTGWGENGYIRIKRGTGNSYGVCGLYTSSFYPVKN
Protocol: To a 170 μl of enzyme-buffer mixture (enzyme:papain, diluted to give 30 mOD/min, buffer: 0.2M potassium phosphate, 1.0 mM EDTA, 5 mML Cysteine, pH6.5) a 10 μl of inhibitor (dissolved in DMSO) was added. After 10 min of incubation at room temperature, 20 μl of 10 mM substrate (N-CBZ-Pro-Phe-Arg-pNA, dissolved in DMSO) was added to initiate reaction. Reading is followed up for 3 min at the Thermomax plate reader(absorbance at 405 nm).
A plot of percentage of inhibition vs inhibitor concentration is obtained, and IC50 is determined using a linear regression calculations (concentration of inhibitor which will give 50% inhibition).

Cathepsin B = Cathepsin B (Rattus norvegicus, UniProt P00787); assay: In vitro assay of inhibition of Cathepsin B (N-CBZ-Phe-Arg-AMC substrate); conditions: r rat CathB, pH5.1, 10 min preincubation at room temperature; read-out: IC50, Cathepsin B
Protocol: After 10 min of incubation at room temperature a 20 μl of 5 mM substrate (N-CBZ-Phe-Arg-AMC, dissolved in DMSO) was added to initiate reaction. Reading is followed up for 10 min at the Fluoroscan reader (excitation at 380 nm, emission at 460 nm).

Cathepsin L = Cathepsin L (Rattus norvegicus, UniProt P07154); assay: Assay of inhibition of Cathepsin L (N-CBZ-Phe-Arg-AMC substrate)
Protocol: After 10 min of incubation at room temperature a 20 μl of 1 mM substrate (N-CBZ-Phe-Arg-AMC, dissolved in DMSO) was added to initiate reaction. Reading is followed up for 10 min at the Fluoroscan reader (excitation at 380 nm, emission at 460 nm).

[1] = r rat CathL, pH5.0, 10 min preincubation at room temperature, read-out: IC50, Cathepsin L

Cathepsin B, sequence (P00787 80-339): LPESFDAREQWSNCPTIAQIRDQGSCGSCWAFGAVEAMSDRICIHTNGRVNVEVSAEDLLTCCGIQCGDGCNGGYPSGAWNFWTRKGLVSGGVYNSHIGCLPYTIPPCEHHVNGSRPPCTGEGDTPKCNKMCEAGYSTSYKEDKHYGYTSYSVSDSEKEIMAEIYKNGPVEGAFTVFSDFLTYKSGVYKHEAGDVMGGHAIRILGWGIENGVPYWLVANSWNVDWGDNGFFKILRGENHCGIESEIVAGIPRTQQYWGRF
Cathepsin L, sequence (P07154 114-334): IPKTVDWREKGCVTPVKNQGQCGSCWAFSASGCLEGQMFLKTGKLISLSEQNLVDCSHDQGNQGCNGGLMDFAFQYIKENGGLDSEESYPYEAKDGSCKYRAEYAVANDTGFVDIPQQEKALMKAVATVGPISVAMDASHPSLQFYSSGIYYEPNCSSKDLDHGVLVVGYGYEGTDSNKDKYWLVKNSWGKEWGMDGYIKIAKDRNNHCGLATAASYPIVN

SMILES | IC50 (papain) | IC50 (Cathepsin B) | IC50 (Cathepsin L; [1]) | IC50 (Cathepsin L) | IC50 (papain; pH6.5, 10 min preincubation at room temperature, read-out: IC50, Papain)
O=C(N[C@@H](Cc1ccccc1)C(=O)N[C@@H]1CNC1=O)OCc1ccccc1 [Example 4, (3R)-3-(N-benzyloxycarbonyl-L-phenylalanyl)-amino-azetidin-2-one] | 57000 nM |  |  |  | 
CC(=O)O[C@H]1[C@H](NC(=O)[C@H](Cc2ccccc2)NC(=O)OCc2ccccc2)C(=O)N1S(=O)(=O)O [Example 32, (3S,4S)-3-(N-benzyloxycarbonyl-L-phenylalanyl)-amino-4-acetoxy-azetidin-2-one-1-sulfonic acid] |  | 368 nM | 26 nM |  | 
CC(=O)O[C@@H]1NC(=O)[C@H]1NC(=O)[C@H](Cc1ccccc1)NC(=O)CCN1CCOCC1 [Example 13] |  | 39200 nM | 2310 nM |  | 
O=C(N[C@@H](Cc1ccccc1)C(=O)N[C@H]1CNC1=O)OCc1ccccc1 [Example 2, (3S)-3-(N-benzyloxycarbonyl-L-phenylalanyl)-amino-azetidin-2-one] | 15800 nM | 4810 nM |  |  | 
CC(=O)O[C@@H]1NC(=O)[C@H]1NC(=O)[C@H](CC(C)C)NC(=O)OCc1ccccc1 [Example 8, (3S,4S)-3-(N-benzyloxycarbonyl-L-leucyl)-amino-4-acetoxy-azetidin-2-one] | 731 nM |  |  | 30 nM | 
C[C@H]1[C@H](NC(=O)CNC(=O)[C@H](Cc2ccccc2)NC(=O)OCc2ccccc2)C(=O)N1S(=O)(=O)O [Example 6, Potassium (3S,4S)-3-(N-benzyloxycarbonyl-L-phenylalanyl-glycinyl)-amino-4-methyl-azetidin-2-one-1-sulfonate] | > 25000 nM | > 25000 nM |  |  | 
CC(=O)O[C@@H]1NC(=O)[C@H]1NC(=O)[C@H](Cc1ccccc1)NC(=O)c1cc2ccccc2o1 [Example 16, (3S,4S)-3{N-(benzofuran-2-yl-carbonyl)-L-phenylalanyl}-amino-4-acetoxy-azetidin-2-one] |  | 5680 nM | 35 nM |  | 
CC(=O)O[C@@H]1NC(=O)[C@H]1NC(=O)[C@H](Cc1ccccc1)NC(=O)N1CCOCC1 [Example 12, (3S,4S)-3-{N-(morpholin-yl-carbonyl)-L-phenylalaninyl}-amino-4-acetoxy-azetidin-2-one] |  | 7400 nM | 1580 nM |  | 
CON1C[C@@H](NC(=O)[C@H](Cc2ccccc2)NC(=O)OCc2ccccc2)C1=O [Example 3, (3R)-3-(N-benzyloxycarbonyl-L-phenylalanyl)-amino-1-methoxy-azetidin-2-one] | > 63000 nM | 52000 nM |  |  | 
O=C(N[C@@H](Cc1ccccc1)C(=O)N[C@@H]1C(=O)N[C@H]1Sc1ccccc1)OCc1ccccc1 [Example 20, (3R,4S)-3-(N-benzyloxycarbonyl-L-phenylalanyl)-amino-4-phenylthio-azetidin-2-one] |  |  | 0.108 nM |  | 
N[C@@H](Cc1ccccc1)C(=O)N[C@@H]1C(=O)N[C@H]1Oc1ccc(C(=O)O)cc1 [Example 30B, (3S,4S)-3-(L-phenylalanyl)-amino-4-(4-carboxyphenoxy)-azetidin-2-one] |  | > 68000 nM | 5260 nM |  | 
CC(=O)O[C@@H]1NC(=O)[C@H]1NC(=O)[C@H](Cc1ccccc1)NC(=O)/C=C/c1cccs1 [Example 17, (3S,4S)-3-[N-{3-(thiophen-2-yl)-trans-prop-2-enoyl}-L-phenylalanyl]-amino-4-acetoxy-azetidin-2-one] |  | 5370 nM | 31.5 nM |  | 
O=C(N[C@@H](Cc1ccccc1)C(=O)N[C@@H]1C(=O)N[C@H]1S(=O)(=O)c1ccccc1)OCc1ccccc1 [Example 21, (3R,4S)-3-(N-benezyloxycarbonyl-phenylalanyl)-amino-4-phenylsulfonyl-azetidin-2-one] |  | 7390 nM | 0.126 nM |  | 
CC(=O)O[C@@H]1NC(=O)[C@H]1NC(=O)[C@H](C)NC(=O)OCc1ccccc1 [Example 33, (3S,4S)-3-(N-benzyloxycarbonyl-L-alanyl)-amino-4-acetoxy-azetidin-2-one] | 7030 nM | 14300 nM | 35900 nM |  | 
O=C(CCc1ccccc1)N[C@@H](Cc1ccccc1)C(=O)N[C@@H]1C(=O)N[C@H]1Oc1ccccc1 [Example 26, (3S,4S)-3-{N-(3-phenylpropionoyl)-L-phenylalanyl}-amino-4-phenoxy-azetidin-2-one] |  | 2190 nM | 55.6 nM |  | 
CC(=O)O[C@@H]1NC(=O)[C@H]1NC(=O)[C@H](Cc1ccccc1)NS(=O)(=O)c1ccc2ccccc2c1 [Example 19, (3S,4S)-3-{N-(naphthalen-2-yl-sulfonyl)-L-phenylalanyl}-amino-4-acetoxy-azetidin-2-one] |  | 7220 nM | 416 nM |  | 
CC(=O)N[C@@H](Cc1ccccc1)C(=O)N[C@@H]1C(=O)N[C@H]1OC(C)=O [Example 9] |  | 42300 nM | 2700 nM |  | 228 nM
O=C(N[C@@H](Cc1ccccc1)C(=O)N[C@@H]1C(=O)N[C@H]1Sc1ccncc1)OCc1ccccc1 [Example 34, (3S,4S)-3-(N-benzyloxycarbonyl-L-phenylalanyl)-amino-4-(pyrid-4-yl) thio-azetidin-2-one] |  | 330 nM | 16.8 nM |  | 
CC(=O)O[C@@H]1NC(=O)[C@H]1NC(=O)[C@H](Cc1ccccc1)NS(=O)(=O)/C=C/c1ccccc1 [Example 11] |  | 1660 nM | 1840 nM |  | 
O=C(CCc1ccccc1)N[C@@H](Cc1ccccc1)C(=O)N[C@@H]1C(=O)N[C@H]1Oc1ccc(C(=O)O)cc1 [Example 27B, (3S,4S)-3-{N-(3-phenylpropionoyl)-L-phenylalanyl}-amino-4-(4-carboxyphenoxy)-azetidin-2-one] |  | 21800 nM | 38 nM |  | 
CC(=O)O[C@@H]1NC(=O)[C@H]1NC(=O)[C@H](Cc1ccccc1)NS(=O)(=O)c1ccc(C(C)(C)C)cc1 [Example 18] |  | 2120 nM | 82 nM |  | 
C[C@H]1[C@H](NC(=O)[C@H](Cc2ccccc2)NC(=O)OCc2ccccc2)C(=O)N1S(=O)(=O)O [Example 5, Potassium (3S,4S)-3-(N-benzyloxycarbonyl-L-phenylalanyl)-amino-4-methyl-azetidin-2-one-1-sulfonate] | > 25000 nM | > 25000 nM |  |  | 
CON1C[C@H](NC(=O)[C@H](Cc2ccccc2)NC(=O)OCc2ccccc2)C1=O [Example 1, (3S)-3-(N-benzyloxycarbonyl-L-phenylalanyl)-amino-1-methoxy-azetidin-2-one] | > 63000 nM | > 63000 nM |  |  | 
CC(=O)O[C@@H]1NC(=O)[C@H]1NC(=O)[C@H](Cc1ccccc1)NC(=O)CCc1cccnc1 [Example 14, (3S,4S)-3-{N-(3-pyrid-3-yl-propionoyl)-L-phenylalanyl}-amino-4-acetoxy-azetidin-2-one] |  | 24500 nM | 1290 nM |  | 
O=C(CCc1ccccc1)N[C@@H](Cc1ccccc1)C(=O)N[C@@H]1C(=O)N[C@H]1Oc1cccc(C(=O)O)c1 [Example 28, (3S,4S)-3-{N-(3-phenylpropionoyl)-L-phenylalanyl}-amino-4-(3-carboxyphenoxy)-azetidin-2-one] |  | 76 nM | 228 nM |  | 
CC(=O)O[C@@H]1NC(=O)[C@H]1NC(=O)[C@H](Cc1ccccc1)NC(=O)OCc1ccccc1 [Example 7, (3S,4S)-3-(N-benzyloxycarbonyl-L-phenylalanyl)-amino-4-acetoxy-azetidin-2-one] | 275 nM |  |  |  | 
O=C(N[C@@H](Cc1ccccc1)C(=O)N[C@@H]1C(=O)N(S(=O)(=O)O)[C@H]1Sc1ccccc1)OCc1ccccc1 [Example 31, (3R,4S)-3-(N-benzyloxycarbonyl-L-phenylalanyl)-amino-4-phenylthio-azetidin-2-one-1-sulfonic acid] |  | 8430 nM | 67 nM |  | 
CC(=O)O[C@@H]1NC(=O)[C@H]1NC(=O)[C@H](Cc1ccccc1)NC(=O)CCc1ccccc1 [Example 10, (3S,4S)-3-{N-(3-phenylpropionoyl)-L-phenylalanyl}-amino-4-acetoxy-azetidin-2-one] |  | 470 nM | 35 nM |  | 
O=C(CCc1ccccc1)N[C@@H](Cc1ccccc1)C(=O)N[C@@H]1C(=O)N[C@H]1Oc1ccc(C[C@H](NC(=O)OCc2ccccc2)C(=O)OC(c2ccccc2)c2ccccc2)cc1 [Example 29A, (3S,4S)-3-{N-(3-phenylpropionoyl)-L-phenylalanyl}-amino-4-{4-(L-2-N-benzyloxycarbonylamino-2-diphenylmethoxycarbonyl-ethyl)-phenoxy}-azetidin-2-one] |  | 590 nM | 160 nM |  | 
CC(=O)Oc1ccc(OCC(=O)N[C@@H](Cc2ccccc2)C(=O)N[C@@H]2C(=O)N[C@H]2OC(C)=O)cc1 [Example 15, (3S,4S)-3-[N-{2-(4-acetoxyphenoxy)-ethanoyl}-L-phenylalanyl]-amino-4-acetoxy-azetidin-2-one] |  | 6330 nM | 2070 nM |  | 
